Test results: patent publication US11214803B2, “Modulators of YAP1 expression” (Ionis Pharmaceuticals, Inc., priority 2019, dated 2022)
Strand notation (5' to 3'): a small letter for the sugar, then the base; units joined by * are phosphorothioate-linked, units joined directly phosphodiester-linked; [ ] holds rarer units or linkages, { } end groups; capitals alone tell only the bases. e = 2'-O-(2-methoxyethyl) (MOE); k = constrained ethyl (cEt); [5mC] = 5-methylcytosine; d = 2'-deoxy (DNA); m = 2'-O-methyl

Test system: Yap1 mRNA
Experiment: Dose-dependent inhibition of human Yap1 in SNU-449 cells (Example 9, RTS36584)
Type: cell-based
Settings: free uptake; for % UTC (Yap1 mRNA): approximately 48 hours; for IC50: linear regression on a log/linear plot
Outline: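 SNU-449 cells (10,000/well) took up modified oligonucleotides by free uptake at a range of doses for about 48 h. Yap1 mRNA was quantified with primer-probe set RTS36584, normalised to RIBOGREEN total RNA and expressed as % untreated control; IC50 from linear regression on log/linear plot.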

Row | Substance | % UTC (Yap1 mRNA) (31.3 nM) [% UTC] | % UTC (Yap1 mRNA) (125.0 nM) [% UTC] | % UTC (Yap1 mRNA) (500.0 nM) [% UTC] | % UTC (Yap1 mRNA) (2000.00 nM) [% UTC] | IC50 [nM]
1 | 1198287 (kA*kA*kA*dT*dT*dG*dT*d[5mC]*dT*d[5mC]*dA*dT*kG*e[5mC]*k[5mC]*eT; antisense) [compound 1198287] | 95 | 68 | 36 | 16 | 300
2 | 1198268 (kA*kA*dG*dT*dG*dT*dA*dT*dG*dT*d[5mC]*eA*eG*eA*kA*kG; antisense) [compound 1198268] | 83 | 52 | 17 | 5 | 100
3 | 1198423 (TCTTATATGGTTTTGT; all C 5-methyl, all phosphorothioate, sugars by position not given here; cEt/MOE mixed gapmer, notation at position 4 garbled) [compound 1198423] | 58 | 35 | 15 | 6 | 50
4 | 1198613 (kA*kA*kA*dG*dT*dG*dT*dA*dT*dG*dT*d[5mC]*kA*kG*kA*eA; antisense) [compound 1198613] | 80 | 25 | 7 | 2 | 100
5 | 1097247 (kT*kA*kA*dA*dG*dT*dG*dT*dA*dT*dG*dT*d[5mC]*kA*kG*kA; antisense) [compound 1097247] | 58 | 28 | 8 | 2 | 40
6 | 1198382 (kT*dT*dA*dG*dA*dG*dT*dA*dT*dG*dT*kG*eG*k[5mC]*eA*kA; antisense) [compound 1198382] | 77 | 56 | 36 | 18 | 200
7 | 1198814 (kA*kG*dA*dG*dT*dA*dT*dG*dT*dG*dG*k[5mC]*eA*kA*eT*kA) [compound 1198814] | 63 | 25 | 6 | 3 | 40
8 | 1198877 (kT*kT*dA*dA*dA*dG*dT*dG*dT*dA*dT*kG*eT*k[5mC]*eA*kG; antisense) [compound 1198877] | 62 | 32 | 13 | 5 | 50
9 | 1198397 (k[5mC]*dA*d[5mC]*dT*dT*dT*dT*dA*d[5mC]*dA*dT*kT*eA*kG*eG*kA; antisense) [compound 1198397] | 70 | 53 | 28 | 14 | 100
10 | 1198466 (kA*kG*dA*dG*dT*dA*dT*dG*dT*dG*dG*e[5mC]*kA*eA*kT*eA; antisense) [compound 1198466] | 68 | 44 | 18 | 6 | 100
11 | 1198552 (kA*kG*kA*dG*dT*dA*dT*dG*dT*dG*dG*d[5mC]*kA*kA*kT*eA; antisense) [compound 1198552] | 72 | 46 | 23 | 9 | 100
12 | 1200858 (kA*kA*kG*dT*dG*mU*dA*dT*dG*dT*d[5mC]*dA*dG*kA*kA*kG; antisense) [compound 1200858] | 71 | 39 | 14 | 4 | 100
